Laboratory results taken from patent US10231980B2, “Cortexolone 17alpha-benzoate for use in the treatment of tumours” (COSMO TECHNOLOGIES LTD., priority 2014, dated 2019).

Experiments:
[1] = In vitro metabolism in plasma; format: in vitro ADME; settings: human plasma, 37 C, through 8 hours
Protocol: To obtain some insight on the metabolism of CB-03-06 in human and rat plasma, a specific assay was designed. Briefly, the compound was incubated at different time points in human and rat plasma at 37 C. After incubation, the samples were tested for presence of the intact compound by liquid chromatography.

[2] = In vivo pharmacokinetics in plasma; settings: mice; for AUC: mouse, plasma
Protocol: The pharmacokinetic of CB-03-06 was evaluated in plasma of mice after intravenous (iv), subcutaneous (SC) and oral administration (PO).
Mice (3 per group) were administered with the following doses and blood was collected at the indicated times. Plasma samples were analyzed by HPLC-MS/MS.

With `C[C@]12CCC(=O)C=C1CC[C@@H]1[C@@H]2CC[C@@]2(C)[C@H]1CC[C@]2(OC(=O)c1ccccc1)C(=O)CO` [CB-03-06, cortexolone 17α-benzoate] the “intact compound, % of initial concentration” value [1] was “over 90%”, the “body exposure relative to subcutaneous administration” value ([2]; intravenously) was 50% and the “body exposure relative to subcutaneous administration” value ([2]; orally) was 17%. The AUC ([2]; PO 40 mg/kg) was 276 ng·h/mL, the AUC ([2]; SC 40 mg/kg) was 1620 ng·h/mL and the AUC ([2]; iv 20 mg/kg) was 896 ng·h/mL.
